# Tests used:
# Type in all cases: in vivo
# [1] = system: sedge, umbrella (small-flower umbrella sedge, Cyperus difformis); assay: Test B flooded paddy test, visual plant response rating 0-100; details: 250 g ai/ha, Flood, applied to paddy water, evaluated after 13 days
# Summary of the method: (§1)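 Greenhouse, 13 d. Seedlings at 2-leaf stage, pots flooded to 3 cm, compound delivered into floodwater, water level held constant. Evaluated visually relative to controls.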
# rice (Oryza sativa) = assay: as above; details: 250 g ai/ha, Flood, applied to paddy water, evaluated after 13 days
# Summary of the method: as §1
# [2] = system: ducksalad (Heteranthera limosa); assay: as above; details: 250 g ai/ha, Flood, applied to paddy water, evaluated after 13 days
# Summary of the method: as §1
# [3] = system: barnyardgrass (Echinochloa crusgalli); assay: as above; details: 250 g ai/ha, Flood, applied to paddy water, evaluated after 13 days
# Summary of the method: as §1
# kochia (Bassia scoparia) [4] = assay: Test A postemergence application, visual injury rating 0-100; details: Postemergence
# Summary of the method: (§2)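 Loam-sand pots got test material in surfactant-containing solvent, either as a directed soil spray before emergence or on plants at the one- to two-leaf stage. Visual injury (0-100) was read after ten greenhouse days.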
# [5] = system: barnyardgrass (Echinochloa crus-galli); assay: as above; details: Postemergence
# Summary of the method: as §2
# [6] = system: blackgrass (Alopecurus myosuroides); assay: as above; details: Postemergence
# Summary of the method: as §2
# [7] = system: ryegrass, Italian (italian ryegrass, Lolium multiflorum); assay: as above; details: Postemergence
# Summary of the method: as §2
# soybean (Glycine max) [8] = assay: as above; details: Postemergence
# Summary of the method: as §2
# [9] = system: ragweed (common ragweed, Ambrosia artemisiifolia); assay: as above; details: Postemergence
# Summary of the method: as §2
# [10] = system: galium (catchweed bedstraw, Galium aparine); assay: as above; details: Postemergence
# Summary of the method: as §2
# [11] = system: palmer (palmer amaranth, palmer pigweed, Amaranthus palmeri); assay: as above; details: Postemergence
# Summary of the method: as §2
# [12] = system: oat, wild (wild oat, Avena fatua); assay: as above; details: Postemergence
# Summary of the method: as §2
# [13] = system: green foxtail (Setaria viridis); assay: as above; details: Postemergence
# Summary of the method: as §2
# [14] = system: horseweed (Erigeron canadensis); assay: as above; details: Postemergence
# Summary of the method: as §2
# [15] = system: wheat (Triticum aestivum); assay: as above; details: Postemergence
# Summary of the method: as §2
# corn (Zea mays) [16] = assay: as above; details: Postemergence
# Summary of the method: as §2
# kochia (Bassia scoparia) [17] = assay: Test A preemergence soil spray, visual injury rating 0-100; details: 10 days, 0 = no effect, 100 = complete control; for Kochia plant response rating (0-100): 31 g ai/ha; for Kochia plant response rating (0 to 100 scale): 125 g ai/ha
# Summary of the method: as §2
# [18] = system: barnyardgrass (Echinochloa crus-galli); assay: as above; details: 10 days, 0 = no effect, 100 = complete control; for Barnyardgrass plant response rating (0-100): 31 g ai/ha; for Barnyardgrass plant response rating (0 to 100 scale): 125 g ai/ha
# Summary of the method: as §2
# [19] = system: blackgrass (Alopecurus myosuroides); assay: as above; details: 10 days, 0 = no effect, 100 = complete control; for Blackgrass plant response rating (0-100): 31 g ai/ha; for Blackgrass plant response rating (0 to 100 scale): 125 g ai/ha
# Summary of the method: as §2
# [20] = system: ryegrass, Italian (italian ryegrass, Lolium multiflorum); assay: as above; details: 10 days, 0 = no effect, 100 = complete control; for Ryegrass, Italian plant response rating (0-100): 31 g ai/ha; for Ryegrass, Italian plant response rating (0 to 100 scale): 125 g ai/ha
# Summary of the method: as §2
# soybean (Glycine max) [21] = assay: as above; details: 10 days, 0 = no effect, 100 = complete control; for Soybean plant response rating (0-100): 31 g ai/ha; for Soybean plant response rating (0 to 100 scale): 125 g ai/ha
# Summary of the method: as §2
# [22] = system: ragweed (common ragweed, Ambrosia artemisiifolia); assay: as above; details: 10 days, 0 = no effect, 100 = complete control; for Ragweed plant response rating (0-100): 31 g ai/ha; for Ragweed plant response rating (0 to 100 scale): 125 g ai/ha
# Summary of the method: as §2
# [23] = system: palmer (palmer amaranth, palmer pigweed, Amaranthus palmeri); assay: as above; details: 10 days, 0 = no effect, 100 = complete control; for Amaranth, Palmer plant response rating (0-100): 31 g ai/ha; for Amaranth, Palmer plant response rating (0 to 100 scale): 125 g ai/ha
# Summary of the method: as §2
# [24] = system: oat, wild (wild oat, Avena fatua); assay: as above; details: 10 days, 0 = no effect, 100 = complete control; for Oat, Wild plant response rating (0-100): 31 g ai/ha; for Oat, Wild plant response rating (0 to 100 scale): 125 g ai/ha
# Summary of the method: as §2
# [25] = system: green foxtail (Setaria viridis); assay: as above; details: 10 days, 0 = no effect, 100 = complete control; for Foxtail, Green plant response rating (0-100): 31 g ai/ha; for Foxtail, Green plant response rating (0 to 100 scale): 125 g ai/ha
# Summary of the method: as §2
# [26] = system: wheat (Triticum aestivum); assay: as above; details: 10 days, 0 = no effect, 100 = complete control; for Wheat plant response rating (0-100): 31 g ai/ha; for Wheat plant response rating (0 to 100 scale): 125 g ai/ha
# Summary of the method: as §2
# corn (Zea mays) [27] = assay: as above; details: 10 days, 0 = no effect, 100 = complete control; for Corn plant response rating (0-100): 31 g ai/ha; for Corn plant response rating (0 to 100 scale): 125 g ai/ha
# Summary of the method: as §2
# [28] = 31 g ai/ha, greenhouse 10 days, 0 no effect, 100 complete control
# [29] = 125 g ai/ha, 10 days, 0 is no effect, 100 is complete control
smiles,measurement,setting,value
COC(=O)COC(=O)C1C=CC(NC(=O)C2(C)CN(c3cc(Cl)cc(Cl)c3)C(=O)O2)C1 (centres unmarked) [Compound 65],"Plant response rating, Sedge, Umbrella (0 to 100 scale, 0 is no effect and 100 is complete control)",[1],100
same,"Plant response rating, Rice (0 to 100 scale, 0 is no effect and 100 is complete control)",rice (Oryza sativa),60
same,"Plant response rating, Ducksalad (0 to 100 scale, 0 is no effect and 100 is complete control)",[2],95
same,"Plant response rating, Barnyardgrass (0 to 100 scale, 0 is no effect and 100 is complete control)",[3],75
same,Kochia plant response rating (0 to 100 scale),kochia (Bassia scoparia) [4]; [28],80
same,Kochia plant response rating (0 to 100 scale),kochia (Bassia scoparia) [4]; [29],90
same,Barnyardgrass plant response rating (0 to 100 scale),[5]; [28],100
same,Barnyardgrass plant response rating (0 to 100 scale),[5]; [29],100
same,Blackgrass plant response rating (0 to 100 scale),[6]; [28],90
same,Blackgrass plant response rating (0 to 100 scale),[6]; [29],100
same,"Ryegrass, Italian plant response rating (0 to 100 scale)",[7]; [28],100
same,"Ryegrass, Italian plant response rating (0 to 100 scale)",[7]; [29],100
same,Soybean plant response rating (0 to 100 scale),soybean (Glycine max) [8]; [28],80
same,Soybean plant response rating (0 to 100 scale),soybean (Glycine max) [8]; [29],80
same,Ragweed plant response rating (0 to 100 scale),[9]; [28],80
same,Ragweed plant response rating (0 to 100 scale),[9]; [29],80
same,Galium plant response rating (0 to 100 scale),[10]; [28],80
same,Galium plant response rating (0 to 100 scale),[10]; [29],90
same,"Amaranth, Palmer / Pigweed, Palmer plant response rating (0 to 100 scale)",[11]; [28],90
same,"Amaranth, Palmer / Pigweed, Palmer plant response rating (0 to 100 scale)",[11]; [29],90
same,"Oat, Wild plant response rating (0 to 100 scale)",[12]; [28],90
same,"Oat, Wild plant response rating (0 to 100 scale)",[12]; [29],90
same,"Foxtail, Green plant response rating (0 to 100 scale)",[13]; [28],90
same,"Foxtail, Green plant response rating (0 to 100 scale)",[13]; [29],90
same,Horseweed plant response rating (0 to 100 scale),[14]; [28],70
same,Horseweed plant response rating (0 to 100 scale),[14]; [29],70
same,Wheat plant response rating (0 to 100 scale),[15]; [28],90
same,Wheat plant response rating (0 to 100 scale),[15]; [29],90
same,Corn plant response rating (0 to 100 scale),corn (Zea mays) [16]; [28],100
same,Corn plant response rating (0 to 100 scale),corn (Zea mays) [16]; [29],100
same,Kochia plant response rating (0-100),kochia (Bassia scoparia) [17],10
same,Kochia plant response rating (0 to 100 scale),kochia (Bassia scoparia) [17],10
same,Barnyardgrass plant response rating (0-100),[18],90
same,Barnyardgrass plant response rating (0 to 100 scale),[18],90
same,Blackgrass plant response rating (0-100),[19],50
same,Blackgrass plant response rating (0 to 100 scale),[19],70
same,"Ryegrass, Italian plant response rating (0-100)",[20],70
same,"Ryegrass, Italian plant response rating (0 to 100 scale)",[20],90
same,Soybean plant response rating (0-100),soybean (Glycine max) [21],10
same,Soybean plant response rating (0 to 100 scale),soybean (Glycine max) [21],70
same,Ragweed plant response rating (0-100),[22],10
same,Ragweed plant response rating (0 to 100 scale),[22],70
same,"Amaranth, Palmer plant response rating (0-100)",[23],100
same,"Amaranth, Palmer plant response rating (0 to 100 scale)",[23],100
same,"Oat, Wild plant response rating (0-100)",[24],20
same,"Oat, Wild plant response rating (0 to 100 scale)",[24],80
same,"Foxtail, Green plant response rating (0-100)",[25],90
same,"Foxtail, Green plant response rating (0 to 100 scale)",[25],90
same,Wheat plant response rating (0-100),[26],50
same,Wheat plant response rating (0 to 100 scale),[26],90
same,Corn plant response rating (0-100),corn (Zea mays) [27],0
same,Corn plant response rating (0 to 100 scale),corn (Zea mays) [27],70
CC(C)COC(=O)C1C=CC(NC(=O)C2(C)CN(c3cc(Cl)cc(Cl)c3)C(=O)O2)C1 (centres unmarked) [Compound 66],"Plant response rating, Sedge, Umbrella (0 to 100 scale, 0 is no effect and 100 is complete control)",[1],100
same,"Plant response rating, Rice (0 to 100 scale, 0 is no effect and 100 is complete control)",rice (Oryza sativa),15
same,"Plant response rating, Ducksalad (0 to 100 scale, 0 is no effect and 100 is complete control)",[2],95
same,"Plant response rating, Barnyardgrass (0 to 100 scale, 0 is no effect and 100 is complete control)",[3],75
same,Kochia plant response rating (0 to 100 scale),kochia (Bassia scoparia) [4]; [28],70
same,Kochia plant response rating (0 to 100 scale),kochia (Bassia scoparia) [4]; [29],80
same,Barnyardgrass plant response rating (0 to 100 scale),[5]; [28],100
same,Barnyardgrass plant response rating (0 to 100 scale),[5]; [29],100
same,Blackgrass plant response rating (0 to 100 scale),[6]; [28],90
same,Blackgrass plant response rating (0 to 100 scale),[6]; [29],90
same,"Ryegrass, Italian plant response rating (0 to 100 scale)",[7]; [28],70
same,"Ryegrass, Italian plant response rating (0 to 100 scale)",[7]; [29],100
same,Soybean plant response rating (0 to 100 scale),soybean (Glycine max) [8]; [28],80
same,Soybean plant response rating (0 to 100 scale),soybean (Glycine max) [8]; [29],80
same,Ragweed plant response rating (0 to 100 scale),[9]; [28],70
same,Ragweed plant response rating (0 to 100 scale),[9]; [29],80
same,Galium plant response rating (0 to 100 scale),[10]; [28],70
same,Galium plant response rating (0 to 100 scale),[10]; [29],80
same,"Amaranth, Palmer / Pigweed, Palmer plant response rating (0 to 100 scale)",[11]; [28],90
same,"Amaranth, Palmer / Pigweed, Palmer plant response rating (0 to 100 scale)",[11]; [29],90
same,"Oat, Wild plant response rating (0 to 100 scale)",[12]; [28],90
same,"Oat, Wild plant response rating (0 to 100 scale)",[12]; [29],90
same,"Foxtail, Green plant response rating (0 to 100 scale)",[13]; [28],70
same,"Foxtail, Green plant response rating (0 to 100 scale)",[13]; [29],90
same,Horseweed plant response rating (0 to 100 scale),[14]; [28],40
same,Horseweed plant response rating (0 to 100 scale),[14]; [29],70
same,Wheat plant response rating (0 to 100 scale),[15]; [28],90
same,Wheat plant response rating (0 to 100 scale),[15]; [29],90
same,Corn plant response rating (0 to 100 scale),corn (Zea mays) [16]; [28],90
same,Corn plant response rating (0 to 100 scale),corn (Zea mays) [16]; [29],100
same,Kochia plant response rating (0-100),kochia (Bassia scoparia) [17],0
same,Kochia plant response rating (0 to 100 scale),kochia (Bassia scoparia) [17],30
same,Barnyardgrass plant response rating (0-100),[18],50
same,Barnyardgrass plant response rating (0 to 100 scale),[18],90
same,Blackgrass plant response rating (0-100),[19],30
same,Blackgrass plant response rating (0 to 100 scale),[19],80
same,"Ryegrass, Italian plant response rating (0-100)",[20],50
same,"Ryegrass, Italian plant response rating (0 to 100 scale)",[20],90
same,Soybean plant response rating (0-100),soybean (Glycine max) [21],0
same,Soybean plant response rating (0 to 100 scale),soybean (Glycine max) [21],0
same,Ragweed plant response rating (0-100),[22],0
same,Ragweed plant response rating (0 to 100 scale),[22],70
same,"Amaranth, Palmer plant response rating (0-100)",[23],90
same,"Amaranth, Palmer plant response rating (0 to 100 scale)",[23],100
same,"Oat, Wild plant response rating (0-100)",[24],0
same,"Oat, Wild plant response rating (0 to 100 scale)",[24],90
same,"Foxtail, Green plant response rating (0-100)",[25],20
same,"Foxtail, Green plant response rating (0 to 100 scale)",[25],100
same,Wheat plant response rating (0-100),[26],10
same,Wheat plant response rating (0 to 100 scale),[26],70
same,Corn plant response rating (0-100),corn (Zea mays) [27],0
same,Corn plant response rating (0 to 100 scale),corn (Zea mays) [27],60
